Consider seven compounds from patent US9693556B2, “Herbicidal pyridazinone derivatives” (SYNGENTA LIMITED, priority 2011, dated 2017).

Each structure is given as a SMILES string.

Holding throughout (assay type): in vivo
Test [1] concerns Solanum nigrum (SOLNI). Nature of the test: Pre-emergence herbicidal glasshouse test on Solanum nigrum. To be noted: pre-emergence; 1000 g/h; evaluated after 13 days. The essentials: (§1)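 Read-out: percentage herbicidal damage 13 days after spraying, given on a five-point scale (5=80-100%, 4=60-79%, 3=40-59%, 2=20-39%, 1=0-19%). Pots of standard soil; application at 1000 g/h, one day post-sowing for pre-emergence, eight days for post-emergence.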

Test [2] deals with Ipomoea hederacea (IPOHE). Kind of test: Post-emergence herbicidal glasshouse test on Ipomoea hederacea. To be noted: post-emergence; 1000 g/h; evaluated after 13 days. The essentials: as §1
In test [3] the test system is Amaranthus retoflexus (AMARE). Nature of the test: Post-emergence herbicidal glasshouse test on Amaranthus retoflexus. To be noted: post-emergence; 1000 g/h; evaluated after 13 days. The essentials: as §1
Test [4] relates to Setaria faberi (SETFA). Nature of the test: Post-emergence herbicidal glasshouse test on Setaria faberi. To be noted: post-emergence; 1000 g/h; evaluated after 13 days. The essentials:
as §1

For test [5], the system named is Echinochloa crus-galli (ECHCG). Nature of the test: Pre-emergence herbicidal glasshouse test on Echinochloa crus-galli. To be noted: pre-emergence; 1000 g/h; evaluated after 13 days. The essentials:
as §1

In test [6] the test system is Alopecurus myosuroides (ALOMY). Nature of the test: Post-emergence herbicidal glasshouse test on Alopecurus myosuroides. To be noted: post-emergence; 1000 g/h; evaluated after 13 days. The essentials:
as §1

The test system of test [7] is Echinochloa crus-galli (ECHCG). Kind of test: Post-emergence herbicidal glasshouse test on Echinochloa crus-galli. The following applies: post-emergence; 1000 g/h; evaluated after 13 days. The essentials:
as §1

Test [8] deals with Alopecurus myosuroides (ALOMY). Kind of test: Pre-emergence herbicidal glasshouse test on Alopecurus myosuroides. To be noted: pre-emergence; 1000 g/h; evaluated after 13 days. The essentials:
as §1

Test [9] has as its system Solanum nigrum (SOLNI). Kind of test: Post-emergence herbicidal glasshouse test on Solanum nigrum. To be noted: post-emergence; 1000 g/h; evaluated after 13 days. A digest of the protocol:
as §1

Test [10] concerns Ipomoea hederacea (IPOHE). Nature of the test: Pre-emergence herbicidal glasshouse test on Ipomoea hederacea. The following applies: pre-emergence; 1000 g/h; evaluated after 13 days. A digest of the protocol: as §1
The subject of test [11] is Setaria faberi (SETFA). Kind of test: Pre-emergence herbicidal glasshouse test on Setaria faberi. The following applies: pre-emergence; 1000 g/h; evaluated after 13 days. The essentials: as §1
Test [12] concerns Amaranthus retoflexus (AMARE). Nature of the test: Pre-emergence herbicidal glasshouse test on Amaranthus retoflexus. To be noted: pre-emergence; 1000 g/h; evaluated after 13 days. A digest of the protocol:
as §1

Regarding `Cn1ncc(-c2ccc(S(C)(=O)=O)c(OCC(F)(F)F)c2Cl)c(O)c1=O` [Compound 1.137], in test [1], the “PRE Application SOLNI herbicidal damage (five point scale)” value (from here on “PRE Application SOLNI herbicidal damage”) is 3 (3=40-59% damage). Moreover, the “POST Application IPOHE herbicidal damage (five point scale)” value (from here on “POST Application IPOHE herbicidal damage”) in test [2] is 5 (5=80-100% damage). For the same compound, in [3], the “POST Application AMARE herbicidal damage (five point scale)” value (shortened to “POST Application AMARE herbicidal damage”) is 5 (5=80-100% damage). In test [4], the “POST Application SETFA herbicidal damage (five point scale)” value (“POST Application SETFA herbicidal damage” below) was 5 (5=80-100% damage). In addition, the “PRE Application ECHCG herbicidal damage (five point scale)” value (from here on “PRE Application ECHCG herbicidal damage”) in [5] is given as 1 (1=0-19% damage). In addition, in test [6], the “POST Application ALOMY herbicidal damage (five point scale)” value (from here on “POST Application ALOMY herbicidal damage”) is 1 (1=0-19% damage). Besides, the “POST Application ECHCG herbicidal damage (five point scale)” value (shortened to “POST Application ECHCG herbicidal damage”) in test [7] was 5 (5=80-100% damage). Also, in test [8], the “PRE Application ALOMY herbicidal damage (five point scale)” value (“PRE Application ALOMY herbicidal damage” below) is 1 (1=0-19% damage). In addition, the “POST Application SOLNI herbicidal damage (five point scale)” value (“POST Application SOLNI herbicidal damage” for short) in test [9] was 5 (5=80-100% damage). Also, in [10], the “PRE Application IPOHE herbicidal damage (five point scale)” value (shortened to “PRE Application IPOHE herbicidal damage”) is 1 (1=0-19% damage). In addition, the “PRE Application SETFA herbicidal damage (five point scale)” value (shortened to “PRE Application SETFA herbicidal damage”) in test [11] is 1 (1=0-19% damage). Also, the “PRE Application AMARE herbicidal damage (five point scale)” value (shortened to “PRE Application AMARE herbicidal damage”) in test [12] is 2 (2=20-39% damage).
As to `Cn1ncc(-c2cc(C(F)(F)F)ccc2F)c(O)c1=O` [Compound 1.096], in [1], the “PRE Application SOLNI herbicidal damage” value was 1 (1=0-19% damage). Moreover, the “POST Application IPOHE herbicidal damage” value in [2] is recorded as 2 (2=20-39% damage). Further, the “POST Application AMARE herbicidal damage” value in test [3] was 1 (1=0-19% damage). Besides, the “POST Application SETFA herbicidal damage” value in [4] is 1 (1=0-19% damage). Also, the “PRE Application ECHCG herbicidal damage” value in test [5] is reported as 1 (1=0-19% damage). Moreover, the “POST Application ALOMY herbicidal damage” value in [6] was 1 (1=0-19% damage). Besides, the “POST Application ECHCG herbicidal damage” value in test [7] is 1 (1=0-19% damage). Further, the “PRE Application ALOMY herbicidal damage” value in test [8] is 1 (1=0-19% damage). In [9], the “POST Application SOLNI herbicidal damage” value was 1 (1=0-19% damage). Also, the “PRE Application IPOHE herbicidal damage” value in test [10] is 1 (1=0-19% damage). For the same compound, the “PRE Application SETFA herbicidal damage” value in test [11] is given as 1 (1=0-19% damage). For the same compound, the “PRE Application AMARE herbicidal damage” value in [12] is reported as 1 (1=0-19% damage).
Turning to `Cn1ncc(-c2cc(Cl)c(Cl)cc2Cl)c(O)c1=O` [Compound 1.089], in [1], the “PRE Application SOLNI herbicidal damage” value was 1 (1=0-19% damage). Further, the “POST Application IPOHE herbicidal damage” value in test [2] is listed as 1 (1=0-19% damage). The “POST Application AMARE herbicidal damage” value in [3] is 1 (1=0-19% damage). In addition, the “POST Application SETFA herbicidal damage” value in test [4] is 1 (1=0-19% damage). Besides, the “PRE Application ECHCG herbicidal damage” value in test [5] was 1 (1=0-19% damage). For the same compound, the “POST Application ALOMY herbicidal damage” value in test [6] is given as 1 (1=0-19% damage). The “POST Application ECHCG herbicidal damage” value in test [7] is 1 (1=0-19% damage). Moreover, the “PRE Application ALOMY herbicidal damage” value in test [8] is listed as 1 (1=0-19% damage). Besides, the “POST Application SOLNI herbicidal damage” value in test [9] was 1 (1=0-19% damage). Further, the “PRE Application IPOHE herbicidal damage” value in test [10] is on record as 1 (1=0-19% damage). Moreover, the “PRE Application SETFA herbicidal damage” value in [11] is reported as 1 (1=0-19% damage). Moreover, in test [12], the “PRE Application AMARE herbicidal damage” value was 1 (1=0-19% damage).
Consider `CC(C)N(C)S(=O)(=O)c1ccc(-c2cnn(C)c(=O)c2O)c(S(C)(=O)=O)c1` [Compound 2.038], for which the “PRE Application SOLNI herbicidal damage” value in [1] is 5 (5=80-100% damage). In addition, the “POST Application IPOHE herbicidal damage” value in test [2] was 4 (4=60-79% damage). For the same compound, the “POST Application AMARE herbicidal damage” value in test [3] is 5 (5=80-100% damage). Further, the “POST Application SETFA herbicidal damage” value in test [4] is listed as 5 (5=80-100% damage). Further, the “PRE Application ECHCG herbicidal damage” value in [5] was 5 (5=80-100% damage). For the same compound, the “POST Application ALOMY herbicidal damage” value in test [6] was 4 (4=60-79% damage). Further, the “POST Application ECHCG herbicidal damage” value in test [7] was 5 (5=80-100% damage). Further, in test [8], the “PRE Application ALOMY herbicidal damage” value is 5 (5=80-100% damage). Further, the “POST Application SOLNI herbicidal damage” value in test [9] is recorded as 5 (5=80-100% damage). The “PRE Application IPOHE herbicidal damage” value in test [10] is 4 (4=60-79% damage). In [11], the “PRE Application SETFA herbicidal damage” value is 4 (4=60-79% damage). The “PRE Application AMARE herbicidal damage” value in [12] is on record as 5 (5=80-100% damage).
Regarding `Cn1ncc(-n2ccc(C(F)(F)F)c(-c3cncnc3)c2=O)c(O)c1=O` [Compound 1.024], in [1], the “PRE Application SOLNI herbicidal damage” value is on record as 1 (1=0-19% damage). For the same compound, the “POST Application IPOHE herbicidal damage” value in test [2] was 4 (4=60-79% damage). For the same compound, in test [3], the “POST Application AMARE herbicidal damage” value is recorded as 5 (5=80-100% damage). In addition, in test [4], the “POST Application SETFA herbicidal damage” value is 3 (3=40-59% damage). For the same compound, the “PRE Application ECHCG herbicidal damage” value in test [5] was 2 (2=20-39% damage). The “POST Application ALOMY herbicidal damage” value in test [6] is reported as 1 (1=0-19% damage). The “POST Application ECHCG herbicidal damage” value in [7] is 2 (2=20-39% damage). Moreover, the “PRE Application ALOMY herbicidal damage” value in [8] is 1 (1=0-19% damage). Besides, in [9], the “POST Application SOLNI herbicidal damage” value is 5 (5=80-100% damage). Moreover, the “PRE Application IPOHE herbicidal damage” value in test [10] is on record as 4 (4=60-79% damage). In test [11], the “PRE Application SETFA herbicidal damage” value is given as 1 (1=0-19% damage). Moreover, the “PRE Application AMARE herbicidal damage” value in test [12] was 5 (5=80-100% damage).
For the compound `Cn1ncc(-c2ccc(S(C)(=O)=O)c(F)c2Cl)c(O)c1=O` [Compound 1.021], the “PRE Application SOLNI herbicidal damage” value in test [1] was 1 (1=0-19% damage). In addition, in test [2], the “POST Application IPOHE herbicidal damage” value is listed as 5 (5=80-100% damage). In [3], the “POST Application AMARE herbicidal damage” value is 5 (5=80-100% damage). Besides, the “POST Application SETFA herbicidal damage” value in test [4] is given as 1 (1=0-19% damage). Further, in [5], the “PRE Application ECHCG herbicidal damage” value is reported as 5 (5=80-100% damage). Further, the “POST Application ALOMY herbicidal damage” value in [6] is on record as 1 (1=0-19% damage). In addition, the “POST Application ECHCG herbicidal damage” value in test [7] is 5 (5=80-100% damage). For the same compound, in test [8], the “PRE Application ALOMY herbicidal damage” value was 2 (2=20-39% damage). Besides, in [9], the “POST Application SOLNI herbicidal damage” value is recorded as 5 (5=80-100% damage). The “PRE Application IPOHE herbicidal damage” value in test [10] is 2 (2=20-39% damage). In test [11], the “PRE Application SETFA herbicidal damage” value is reported as 1 (1=0-19% damage). Also, the “PRE Application AMARE herbicidal damage” value in test [12] is listed as 5 (5=80-100% damage).
As to `CC(C)n1ncc(-c2ccc(S(C)(=O)=O)c(C3=NOCC3)c2Cl)c(O)c1=O` [Compound 1.014], the “PRE Application SOLNI herbicidal damage” value in test [1] is recorded as 5 (5=80-100% damage). In addition, in test [2], the “POST Application IPOHE herbicidal damage” value is on record as 5 (5=80-100% damage). For the same compound, the “POST Application AMARE herbicidal damage” value in test [3] is 5 (5=80-100% damage). In addition, the “POST Application SETFA herbicidal damage” value in [4] was 5 (5=80-100% damage). Besides, the “PRE Application ECHCG herbicidal damage” value in test [5] is 5 (5=80-100% damage). In addition, the “POST Application ALOMY herbicidal damage” value in test [6] was 5 (5=80-100% damage). The “POST Application ECHCG herbicidal damage” value in [7] is listed as 5 (5=80-100% damage). Further, the “PRE Application ALOMY herbicidal damage” value in test [8] is 5 (5=80-100% damage). For the same compound, the “POST Application SOLNI herbicidal damage” value in [9] is given as 5 (5=80-100% damage). Besides, the “PRE Application IPOHE herbicidal damage” value in test [10] is on record as 2 (2=20-39% damage). Moreover, the “PRE Application SETFA herbicidal damage” value in [11] is 5 (5=80-100% damage). For the same compound, the “PRE Application AMARE herbicidal damage” value in [12] is 5 (5=80-100% damage).
